A word on the ΔTm: it is the shift of the melting midpoint relative to a reference. By IC50 is commonly meant the concentration at which inhibition is half-maximal. A low value points to inhibition by little substance.

The record followed here is ChEMBL document CHEMBL4028852, “Design of a Chemical Probe for the Bromodomain and Plant Homeodomain Finger-Containing (BRPF) Family of Proteins” (J Med Chem, 2017).

One assay deals with T1, Peregrin (Homo sapiens) (UniProt P55201).
T1 sequence (whole entry): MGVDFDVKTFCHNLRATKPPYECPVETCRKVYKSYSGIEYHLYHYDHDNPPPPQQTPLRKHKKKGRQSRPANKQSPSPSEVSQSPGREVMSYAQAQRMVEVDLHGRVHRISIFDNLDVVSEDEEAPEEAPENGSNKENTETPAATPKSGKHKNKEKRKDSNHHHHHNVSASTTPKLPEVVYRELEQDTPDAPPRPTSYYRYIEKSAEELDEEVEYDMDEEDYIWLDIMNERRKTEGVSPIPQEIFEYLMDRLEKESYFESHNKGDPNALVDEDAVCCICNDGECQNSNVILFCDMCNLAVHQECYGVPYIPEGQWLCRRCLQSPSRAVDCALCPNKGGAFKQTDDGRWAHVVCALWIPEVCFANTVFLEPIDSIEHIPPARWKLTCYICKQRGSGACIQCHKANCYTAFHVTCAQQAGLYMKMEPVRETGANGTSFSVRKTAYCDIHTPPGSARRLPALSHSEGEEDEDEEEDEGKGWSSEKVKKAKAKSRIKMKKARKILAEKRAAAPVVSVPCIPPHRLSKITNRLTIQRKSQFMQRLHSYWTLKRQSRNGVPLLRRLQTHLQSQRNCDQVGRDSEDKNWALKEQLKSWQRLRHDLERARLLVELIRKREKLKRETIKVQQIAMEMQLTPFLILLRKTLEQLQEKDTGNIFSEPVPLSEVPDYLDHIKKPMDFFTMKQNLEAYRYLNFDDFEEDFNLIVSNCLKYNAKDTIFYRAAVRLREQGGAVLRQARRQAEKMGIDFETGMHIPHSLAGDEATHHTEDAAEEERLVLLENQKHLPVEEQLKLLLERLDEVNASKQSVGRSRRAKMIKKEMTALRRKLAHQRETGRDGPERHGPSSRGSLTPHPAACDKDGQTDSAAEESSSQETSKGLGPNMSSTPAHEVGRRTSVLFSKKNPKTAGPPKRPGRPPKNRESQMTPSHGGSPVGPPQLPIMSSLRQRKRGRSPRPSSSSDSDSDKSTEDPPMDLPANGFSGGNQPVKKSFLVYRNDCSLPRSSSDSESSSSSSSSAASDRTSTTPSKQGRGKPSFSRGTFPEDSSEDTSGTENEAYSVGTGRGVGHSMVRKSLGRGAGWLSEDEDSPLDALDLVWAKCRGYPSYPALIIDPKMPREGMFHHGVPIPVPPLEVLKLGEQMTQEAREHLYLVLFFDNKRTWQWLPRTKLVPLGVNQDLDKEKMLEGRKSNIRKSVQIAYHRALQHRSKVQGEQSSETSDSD

The target in assay [1] is T2, Bromodomain and PHD finger-containing protein 3 (Homo sapiens, UniProt Q9ULD4).
T2 sequence (Q9ULD4 whole entry): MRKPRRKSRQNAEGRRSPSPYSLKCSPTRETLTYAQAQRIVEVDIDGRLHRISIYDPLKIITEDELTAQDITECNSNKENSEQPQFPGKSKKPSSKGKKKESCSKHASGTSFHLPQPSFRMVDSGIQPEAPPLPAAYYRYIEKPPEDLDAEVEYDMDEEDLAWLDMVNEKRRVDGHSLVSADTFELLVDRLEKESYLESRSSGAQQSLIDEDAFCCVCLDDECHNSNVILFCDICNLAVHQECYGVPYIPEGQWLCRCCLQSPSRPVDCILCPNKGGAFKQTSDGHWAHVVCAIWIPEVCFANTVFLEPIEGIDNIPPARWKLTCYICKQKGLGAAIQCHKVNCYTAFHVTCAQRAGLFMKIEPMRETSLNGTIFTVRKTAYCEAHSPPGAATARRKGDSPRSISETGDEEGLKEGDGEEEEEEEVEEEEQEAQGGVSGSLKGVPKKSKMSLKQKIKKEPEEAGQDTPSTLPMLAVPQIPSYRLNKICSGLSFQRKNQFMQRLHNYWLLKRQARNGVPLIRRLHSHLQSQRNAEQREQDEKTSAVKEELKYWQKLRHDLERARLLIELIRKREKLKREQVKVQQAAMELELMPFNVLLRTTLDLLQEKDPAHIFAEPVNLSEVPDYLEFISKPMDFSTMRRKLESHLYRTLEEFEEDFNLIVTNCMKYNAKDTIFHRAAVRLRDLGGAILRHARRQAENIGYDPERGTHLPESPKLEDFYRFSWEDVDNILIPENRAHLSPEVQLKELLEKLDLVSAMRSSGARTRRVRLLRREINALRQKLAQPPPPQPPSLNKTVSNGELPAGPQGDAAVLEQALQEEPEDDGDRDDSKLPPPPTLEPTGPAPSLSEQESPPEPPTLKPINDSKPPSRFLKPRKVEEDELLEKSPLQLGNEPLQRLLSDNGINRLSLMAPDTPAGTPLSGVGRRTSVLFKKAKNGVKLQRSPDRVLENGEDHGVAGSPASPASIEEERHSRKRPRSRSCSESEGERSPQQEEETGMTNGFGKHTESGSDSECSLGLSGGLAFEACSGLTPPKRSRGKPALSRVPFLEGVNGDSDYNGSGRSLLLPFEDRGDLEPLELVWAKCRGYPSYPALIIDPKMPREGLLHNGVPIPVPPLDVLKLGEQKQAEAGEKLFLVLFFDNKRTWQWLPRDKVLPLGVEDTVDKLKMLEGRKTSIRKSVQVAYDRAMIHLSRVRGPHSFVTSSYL
In words: Inhibition of human BRPF3 (588 to 701 residues) expressed in Escherichia coli BL21 after 1 hr by BROMOscan assay.

Assay [2] has as its target T3, Bromodomain-containing protein 1 (Homo sapiens, UniProt O95696).
T3 sequence (O95696 whole entry): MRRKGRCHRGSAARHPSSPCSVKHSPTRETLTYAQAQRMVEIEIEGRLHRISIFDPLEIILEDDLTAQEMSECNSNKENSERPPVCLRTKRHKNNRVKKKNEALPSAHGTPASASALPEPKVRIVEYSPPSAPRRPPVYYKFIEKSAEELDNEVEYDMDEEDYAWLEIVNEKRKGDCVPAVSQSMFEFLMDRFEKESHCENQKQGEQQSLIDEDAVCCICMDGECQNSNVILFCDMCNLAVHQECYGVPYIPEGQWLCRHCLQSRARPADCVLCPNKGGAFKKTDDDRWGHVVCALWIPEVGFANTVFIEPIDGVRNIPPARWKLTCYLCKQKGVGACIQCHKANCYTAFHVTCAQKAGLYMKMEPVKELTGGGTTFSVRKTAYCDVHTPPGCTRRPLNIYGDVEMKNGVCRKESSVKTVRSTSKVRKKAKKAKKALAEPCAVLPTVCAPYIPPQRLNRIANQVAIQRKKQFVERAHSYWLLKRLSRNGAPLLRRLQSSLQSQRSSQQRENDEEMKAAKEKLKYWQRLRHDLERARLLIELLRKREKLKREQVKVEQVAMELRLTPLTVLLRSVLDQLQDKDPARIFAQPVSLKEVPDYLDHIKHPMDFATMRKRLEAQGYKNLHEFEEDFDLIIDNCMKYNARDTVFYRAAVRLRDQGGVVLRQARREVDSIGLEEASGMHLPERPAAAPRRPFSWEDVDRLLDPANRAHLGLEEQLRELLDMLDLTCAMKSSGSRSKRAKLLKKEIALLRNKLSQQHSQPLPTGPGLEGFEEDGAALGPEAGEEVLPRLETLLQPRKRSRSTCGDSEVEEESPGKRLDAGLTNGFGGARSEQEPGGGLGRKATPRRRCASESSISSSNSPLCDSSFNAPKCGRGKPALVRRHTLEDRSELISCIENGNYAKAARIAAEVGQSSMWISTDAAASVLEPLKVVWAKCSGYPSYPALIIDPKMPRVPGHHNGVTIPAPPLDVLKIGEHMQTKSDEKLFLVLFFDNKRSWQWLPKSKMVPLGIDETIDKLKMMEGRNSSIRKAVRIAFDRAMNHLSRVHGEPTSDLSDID
In words: Inhibition of human BRPF2 (556 to 688 residues) expressed in Escherichia coli BL21 after 1 hr by BROMOscan assay.

The target in another assay is T4, Peregrin (Homo sapiens, UniProt P55201).
T4 sequence (P55201 whole entry): T1 sequence (whole entry)
In words: Inhibition of human BRPF1 (627 to 740 residues) expressed in Escherichia coli BL21 after 1 hr by BROMOscan assay.

The target of assay [3] is Bromodomain-containing protein 4 (Homo sapiens, UniProt O60885). Put plainly: Inhibition of human BRD4 isoform long bromodomain 1 (44 to 168 residues) expressed in Escherichia coli BL21 after 1 hr by BROMOscan assay.
The target in assay [4] is T5, Bromodomain-containing protein 9 (Homo sapiens, UniProt Q9H8M2).
T5 sequence (Q9H8M2 whole entry): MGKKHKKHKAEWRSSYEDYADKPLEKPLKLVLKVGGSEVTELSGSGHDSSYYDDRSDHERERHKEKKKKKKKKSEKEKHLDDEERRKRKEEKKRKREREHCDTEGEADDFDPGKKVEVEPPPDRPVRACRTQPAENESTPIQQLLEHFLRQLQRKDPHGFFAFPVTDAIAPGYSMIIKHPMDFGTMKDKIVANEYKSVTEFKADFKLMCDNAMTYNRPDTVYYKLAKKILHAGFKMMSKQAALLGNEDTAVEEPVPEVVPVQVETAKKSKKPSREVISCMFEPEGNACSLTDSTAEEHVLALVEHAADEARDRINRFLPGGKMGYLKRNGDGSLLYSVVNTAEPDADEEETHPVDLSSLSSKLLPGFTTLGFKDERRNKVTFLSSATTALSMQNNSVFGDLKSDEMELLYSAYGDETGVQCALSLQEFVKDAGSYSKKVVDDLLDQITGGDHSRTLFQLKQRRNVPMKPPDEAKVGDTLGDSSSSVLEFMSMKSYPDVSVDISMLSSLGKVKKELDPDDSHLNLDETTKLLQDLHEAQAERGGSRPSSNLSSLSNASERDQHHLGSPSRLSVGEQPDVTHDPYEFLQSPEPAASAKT
Description: Inhibition of human BRD9 (130 to 259 residues) expressed in Escherichia coli BL21 after 1 hr by BROMOscan assay

Description for Peregrin (Homo sapiens): Binding affinity to BRPF1 (unknown origin) assessed as change in melting temperature at 10 uM by differential scanning fluorimetry based thermal shift assay

`Cn1c(=O)ccc2cc(NS(=O)(=O)c3ccccc3C#N)ccc21`: the ΔTm on Peregrin (Homo sapiens) came out at 2.4 °C.

On to `Cn1c(=O)ccc2cc(NS(=O)(=O)C3CC3)ccc21`, for which, at Peregrin (Homo sapiens), the ΔTm was found to be 1.9 °C. Regarding `Cn1c(=O)ccc2cc(S(=O)(=O)Nc3ccc(C#N)cc3)ccc21`, the thermal shift (ΔTm) at Peregrin (Homo sapiens) came to 3.1 °C. Also, in assay [1], the IC50 was determined as 2200 nM. Turning to `CCc1cc2cc(NS(=O)(=O)c3ccc(C#N)cc3OC)ccc2n(CC)c1=O`, the IC50 came to 4400 nM in assay [2], 4600 nM in assay [1] and 250 nM against Peregrin. Take `Cn1c(=O)ccc2cc(NS(C)(=O)=O)ccc21`: the ΔTm on Peregrin (Homo sapiens) amounted to 1.4 °C. Turning to `CCS(=O)(=O)Nc1ccc2c(ccc(=O)n2C)c1`, the ΔTm at Peregrin (Homo sapiens) was found to be 1.8 °C. The same measure, in the same setting: for `CN(c1ccc2c(ccc(=O)n2C)c1)S(=O)(=O)c1ccc(C#N)cc1` the value was 1.8 °C. Take `COc1cc2c(cc1NS(=O)(=O)c1ccc(C#N)cc1OC)cc(C)c(=O)n2C`: in assay [3], the IC50 was found to be 1700 nM. Also, the ΔTm on Peregrin (Homo sapiens) was 12.7 °C. Regarding `COc1ccccc1S(=O)(=O)Nc1ccc2c(c1)cc(C)c(=O)n2C`, the ΔTm at Peregrin (Homo sapiens) amounted to 10.2 °C. Same read-out and setting: for `COc1cc2c(cc1NS(=O)(=O)c1ccccc1)cc(C)c(=O)n2C` the value was 9.4 °C; for `Cn1c(=O)ccc2cc(NS(=O)(=O)c3ccc(C#N)cc3)ccc21`, 5.2 °C.

As for `CC(C)S(=O)(=O)Nc1ccc2c(ccc(=O)n2C)c1`, on Peregrin (Homo sapiens), the ΔTm worked out at 2.2 °C. As to `CCc1cc2cc(NS(=O)(=O)c3ccc(C#N)cc3)ccc2n(C)c1=O`, the thermal shift (ΔTm) on Peregrin (Homo sapiens) stood at 5.6 °C.

Turning to `Cc1cc(=O)n(C)c2ccc(NS(=O)(=O)c3ccc(C#N)cc3)cc12`, at Peregrin (Homo sapiens), the ΔTm is 4.3 °C. Turning to `CCc1cc2cc(NS(=O)(=O)c3ccc(C#N)cc3OC)ccc2n(C)c1=O`, on Peregrin (Homo sapiens), the ΔTm is 8 °C. Moreover, on Peregrin, the IC50 is 93 nM. As to `COc1cc(C#N)ccc1S(=O)(=O)N(C)c1ccc2c(c1)cc(C)c(=O)n2C`, the ΔTm on Peregrin (Homo sapiens) came out at 7.1 °C.

Take `Cn1c(=O)ccc2cc(NS(=O)(=O)c3cccc(C#N)c3)ccc21`: the ΔTm at Peregrin (Homo sapiens) came to 4.4 °C.

On to `Cn1c(=O)ccc2cc(NS(=O)(=O)c3ccccc3)ccc21`, for which half-maximal inhibition in assay [4] (IC50) required 2200 nM. Besides, the ΔTm at Peregrin (Homo sapiens) is 5.3 °C. In turn, `COc1cc2c(ccc(=O)n2C)cc1N(C)S(=O)(=O)c1ccc(C#N)cc1` returned an IC50 on Peregrin of 1000 nM. With `CC(C)c1cc2cc(NS(=O)(=O)c3ccc(C#N)cc3)ccc2n(C)c1=O`, the IC50 in assay [2] worked out at 14000 nM; in assay [1] it was 16000 nM; at Peregrin, 870 nM. As for `COc1cc2c(cc1NS(=O)(=O)c1ccc(C#N)cc1)cc(C)c(=O)n2C`, on Peregrin (Homo sapiens), the ΔTm stood at 8.8 °C.

Take `COc1cc(C#N)ccc1S(=O)(=O)Nc1cc(F)c2c(c1)cc(C)c(=O)n2C`: the IC50 is 510 nM in assay [2], 10000 nM in assay [1] and 12 nM against Peregrin. In addition, the ΔTm at Peregrin (Homo sapiens) is 6.8 °C. As to `COc1cc(C#N)ccc1S(=O)(=O)N(c1ccc2c(c1)cc(C)c(=O)n2C)C(C)C`, the IC50 against Peregrin worked out at 160 nM.

As to `CCc1cc2cc(NS(=O)(=O)c3ccc(C#N)cc3)ccc2n(CC)c1=O`, the IC50 in assay [3] was above 100000 nM. For `Cn1c(=O)ccc2cc(NS(=O)(=O)C3CCCCC3)ccc21`, on Peregrin (Homo sapiens), the thermal shift (ΔTm) stood at 3.9 °C.

Turning to `COc1cc2c(ccc(=O)n2C)cc1NS(=O)(=O)c1ccccc1`, the ΔTm at Peregrin (Homo sapiens) amounted to 6.3 °C. For `CCN(c1ccc2c(c1)cc(C)c(=O)n2C)S(=O)(=O)c1ccc(C#N)cc1OC`, it took 110 nM to reach half-maximal inhibition against Peregrin (IC50).

`COc1cc2c(ccc(=O)n2C)cc1NS(=O)(=O)c1ccc(C#N)cc1`: the IC50 in assay [3] was above 10000 nM. Moreover, the ΔTm on Peregrin (Homo sapiens) stood at 5.6 °C.
